Key:
Assay type in all cases: in vivo
[1] = test system: large crabgrass (Digitaria sanguinalis, DIGSA); test: Pre-emerge test, greenhouse herbicide activity screening; settings: pre-emerge, 14 days after application, rating scale 0-100
Summary of the method: (§1)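 Sandy loam pots; pre-emerge: sown 1 d pre-spray, surface-watered after, then bottom-watered. Post-emerge: sown 8–21 d before, 2–3 leaf stage, + 0.25% v/v NIS, bottom-watered. Acetone, 187 l/ha track spray, 15–1000 g ai/ha. 0–100 injury score, day 14.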

[2] = test system: johnsongrass (Sorghum halepense, SORHA); test: as above; settings: pre-emerge, 14 days after application, rating scale 0-100
Summary of the method: as §1

[3] = test system: lambsquarters (Chenopodium album, CHEAL); test: as above; settings: pre-emerge, 14 days after application, rating scale 0-100
Summary of the method: as §1

[4] = test system: green foxtail (Setaria viridis, SETVI); test: as above; settings: pre-emerge, 14 days after application, rating scale 0-100
Summary of the method: as §1

[5] = test system: barnyardgrass (Echinochloa crus-galli, ECHCG); test: as above; settings: pre-emerge, 14 days after application, rating scale 0-100
Summary of the method: as §1

[6] = test system: sicklepod (Cassia obtusifolia, CASOB); test: as above; settings: pre-emerge, 14 days after application, rating scale 0-100
Summary of the method: as §1

[7] = test system: ivyleaf morningglory (Ipomoea hederacea, IPOHE); test: as above; settings: pre-emerge, 14 days after application, rating scale 0-100
Summary of the method: as §1

[8] = test system: velvetleaf (Abutilon theophrasti, ABUTH); test: as above; settings: pre-emerge, 14 days after application, rating scale 0-100
Summary of the method: as §1

[9] = test system: redroot pigweed (Amaranthus retroflexus, AMARE); test: as above; settings: pre-emerge, 14 days after application, rating scale 0-100
Summary of the method: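 Compounds in acetone were track-sprayed at 187 l/ha, 15–1000 g ai/ha, onto sandy loam pots. Pre-emerge seeds were sown one day before spraying, with surface watering afterwards. Post-emerge plants were at the 2–3 leaf stage and sprayed with 0.25% v/v non-ionic surfactant. Injury was rated 0–100 at 14 days.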

[10] = test system: upland rice (Oryza sp., var. Tebonnet, RICE); test: Post-emerge test, crop safety; settings: post-emerge, 14 days after application, rating scale 0-100
Summary of the method: as §1

[11] = test system: field corn (Zea mays L., var. Dekalb 535, CORN); test: Post-emerge test, crop safety; settings: post-emerge, 14 days after application, rating scale 0-100
Summary of the method: as §1

[12] = test system: upland rice (Oryza sp., var. Tebonnet, RICE); test: Pre-emerge test, crop safety; settings: pre-emerge, 14 days after application, rating scale 0-100
Summary of the method: (§2)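 Compounds in acetone were track-sprayed at 15-1000 g ai/ha (187 l/ha) on sandy loam pots: pre-emerge one day after seeding, post-emerge at 2-3 leaf stage with 0.25% v/v non-ionic surfactant. Phytotoxicity was rated 14 days later on a 0 (no damage) to 100 (complete death) scale.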

[13] = test system: field corn (Zea mays L., var. Dekalb 535, CORN); test: Pre-emerge test, crop safety; settings: pre-emerge, 14 days after application, rating scale 0-100
Summary of the method: as §2

[14] = test system: large crabgrass (Digitaria sanguinalis, DIGSA); test: Post-emerge test, greenhouse herbicide activity screening; settings: post-emerge, 14 days after application, rating scale 0-100
Summary of the method: (§3)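 Each test used a mechanized track sprayer delivering 187 l/ha of acetone solution at 15–1000 g ai/ha. Post-emerge foliage at 2–3 leaves was treated with added 0.25% v/v non-ionic surfactant and bottom-watered only. Injury was assessed on day 14, where 100 means total kill.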

[15] = test system: redroot pigweed (Amaranthus retroflexus, AMARE); test: as above; settings: post-emerge, 14 days after application
Summary of the method: as §3

[16] = test system: johnsongrass (Sorghum halepense, SORHA); test: as above; settings: post-emerge, 14 days after application, rating scale 0-100
Summary of the method: as §3

[17] = test system: lambsquarters (Chenopodium album, CHEAL); test: as above; settings: post-emerge, 14 days after application, rating scale 0-100
Summary of the method: as §3

[18] = test system: green foxtail (Setaria viridis, SETVI); test: as above; settings: post-emerge, 14 days after application, rating scale 0-100
Summary of the method: as §3

[19] = test system: barnyardgrass (Echinochloa crus-galli, ECHCG); test: as above; settings: post-emerge, 14 days after application, rating scale 0-100
Summary of the method: as §3

[20] = test system: sicklepod (Cassia obtusifolia, CASOB); test: as above; settings: post-emerge, 14 days after application, rating scale 0-100
Summary of the method: as §3

[21] = test system: ivyleaf morningglory (Ipomoea hederacea, IPOHE); test: as above; settings: post-emerge, 14 days after application, rating scale 0-100
Summary of the method: as §3

[22] = test system: velvetleaf (Abutilon theophrasti, ABUTH); test: as above; settings: post-emerge, 14 days after application, rating scale 0-100
Summary of the method: as §3

[23] = 63 g ai/ha, rating scale 0-100 (0 no damage, 100 complete death)
[24] = 250 g ai/ha, rating scale 0-100

With COc1c(Cl)cc(F)c(-n2c(=O)cc(C(F)(F)F)n(C)c2=O)c1NN=CC1CC1 [Compound 15-11] the “phytotoxicity rating DIGSA” value ([1]; 63 g ai/ha) was 100, the “phytotoxicity rating DIGSA” value ([1]; 250 g ai/ha) was 100 and the “phytotoxicity rating SORHA” value ([2]; 63 g ai/ha) was 100. The “phytotoxicity rating SORHA” value ([2]; 250 g ai/ha) was 100, the “phytotoxicity rating CHEAL” value ([3]; 63 g ai/ha) was 100 and the “phytotoxicity rating CHEAL” value ([3]; 250 g ai/ha) was 100. The “phytotoxicity rating SETVI” value ([4]; 63 g ai/ha) was 100, the “phytotoxicity rating SETVI” value ([4]; 250 g ai/ha) was 100 and the “phytotoxicity rating ECHCG” value ([5]; 63 g ai/ha) was 100. The “phytotoxicity rating ECHCG” value ([5]; 250 g ai/ha) was 100, the “phytotoxicity rating CASOB” value ([6]; 63 g ai/ha) was 100 and the “phytotoxicity rating CASOB” value ([6]; 250 g ai/ha) was 100. For the same molecule, the “phytotoxicity rating IPOHE” value ([7]; 63 g ai/ha) was 100, the “phytotoxicity rating IPOHE” value ([7]; 250 g ai/ha) was 100 and the “phytotoxicity rating ABUTH” value ([8]; 63 g ai/ha) was 100. The “phytotoxicity rating ABUTH” value ([8]; 250 g ai/ha) was 100, the “phytotoxicity rating AMARE” value ([9]; 63 g ai/ha) was 100 and the “phytotoxicity rating AMARE” value ([9]; 250 g ai/ha) was 100. For the same molecule, the “Post-emerge Herbicidal Activity RICE (crop damage rating)” value (“Post-emerge Herbicidal Activity RICE” for short) ([10]; 63 g ai/ha) was 65, the “Post-emerge Herbicidal Activity RICE” value ([10]; 250 g ai/ha) was 99 and the “Post-emerge Herbicidal Activity CORN (crop damage rating)” value (“Post-emerge Herbicidal Activity CORN” for short) ([11]; 63 g ai/ha) was 45. The “Post-emerge Herbicidal Activity CORN” value ([11]; 250 g ai/ha) was 85, the “phytotoxicity rating RICE” value ([12]; 63 g ai/ha) was 100 and the “phytotoxicity rating RICE” value ([12]; 250 g ai/ha) was 100. For the same molecule, the “phytotoxicity rating CORN” value ([13]; 63 g ai/ha) was 100, the “phytotoxicity rating CORN” value ([13]; 250 g ai/ha) was 100 and the “Post-emerge Herbicidal Activity DIGSA (phytotoxicity rating)” value (“Post-emerge Herbicidal Activity DIGSA” for short) ([14]; 63 g ai/ha) was 50. The “Post-emerge Herbicidal Activity DIGSA” value ([14]; 250 g ai/ha) was 95, the “Post-emerge Herbicidal Activity AMARE (phytotoxicity rating)” value (“Post-emerge Herbicidal Activity AMARE” below) [15, 23] was 95 and the “Post-emerge Herbicidal Activity AMARE” value [15, 24] was 100. For the same molecule, the “Post-emerge Herbicidal Activity SORHA (phytotoxicity rating)” value (shortened to “Post-emerge Herbicidal Activity SORHA”) ([16]; 63 g ai/ha) was 50, the “Post-emerge Herbicidal Activity SORHA” value ([16]; 250 g ai/ha) was 99 and the “Post-emerge Herbicidal Activity CHEAL (phytotoxicity rating)” value (“Post-emerge Herbicidal Activity CHEAL” for short) ([17]; 63 g ai/ha) was 100. For the same molecule, the “Post-emerge Herbicidal Activity CHEAL” value ([17]; 250 g ai/ha) was 100, the “Post-emerge Herbicidal Activity SETVI (phytotoxicity rating)” value (“Post-emerge Herbicidal Activity SETVI” below) ([18]; 63 g ai/ha) was 40 and the “Post-emerge Herbicidal Activity SETVI” value ([18]; 250 g ai/ha) was 80. The “Post-emerge Herbicidal Activity ECHCG (phytotoxicity rating)” value (shortened to “Post-emerge Herbicidal Activity ECHCG”) ([19]; 63 g ai/ha) was 50, the “Post-emerge Herbicidal Activity ECHCG” value ([19]; 250 g ai/ha) was 99 and the “Post-emerge Herbicidal Activity CASOB (phytotoxicity rating)” value (“Post-emerge Herbicidal Activity CASOB” for short) ([20]; 63 g ai/ha) was 90. For the same molecule, the “Post-emerge Herbicidal Activity CASOB” value ([20]; 250 g ai/ha) was 100, the “Post-emerge Herbicidal Activity IPOHE (phytotoxicity rating)” value (“Post-emerge Herbicidal Activity IPOHE” below) ([21]; 63 g ai/ha) was 100 and the “Post-emerge Herbicidal Activity IPOHE” value ([21]; 250 g ai/ha) was 100. For the same molecule, the “Post-emerge Herbicidal Activity ABUTH (phytotoxicity rating)” value (shortened to “Post-emerge Herbicidal Activity ABUTH”) ([22]; 63 g ai/ha) was 100 and the “Post-emerge Herbicidal Activity ABUTH” value ([22]; 250 g ai/ha) was 100.

In the case of CCOC(=O)CC(C)=NNc1c(OC)c(Cl)cc(F)c1-n1c(=O)cc(C(F)(F)F)n(C)c1=O [15-16], the “phytotoxicity rating DIGSA” value ([1]; 63 g ai/ha) is reported as 100, the “phytotoxicity rating DIGSA” value ([1]; 250 g ai/ha) is reported as 100 and the “phytotoxicity rating SORHA” value ([2]; 63 g ai/ha) is reported as 100. The “phytotoxicity rating SORHA” value ([2]; 250 g ai/ha) was 100, the “phytotoxicity rating CHEAL” value ([3]; 63 g ai/ha) was 100 and the “phytotoxicity rating CHEAL” value ([3]; 250 g ai/ha) was 100. For the same molecule, the “phytotoxicity rating SETVI” value ([4]; 63 g ai/ha) was 100, the “phytotoxicity rating SETVI” value ([4]; 250 g ai/ha) was 100 and the “phytotoxicity rating ECHCG” value ([5]; 63 g ai/ha) was 80. The “phytotoxicity rating ECHCG” value ([5]; 250 g ai/ha) was 100, the “phytotoxicity rating CASOB” value ([6]; 63 g ai/ha) was 90 and the “phytotoxicity rating CASOB” value ([6]; 250 g ai/ha) was 100. The “phytotoxicity rating IPOHE” value ([7]; 63 g ai/ha) was 90, the “phytotoxicity rating IPOHE” value ([7]; 250 g ai/ha) was 100 and the “phytotoxicity rating ABUTH” value ([8]; 63 g ai/ha) was 100. For the same molecule, the “phytotoxicity rating ABUTH” value ([8]; 250 g ai/ha) was 100, the “phytotoxicity rating AMARE” value ([9]; 63 g ai/ha) was 100 and the “phytotoxicity rating AMARE” value ([9]; 250 g ai/ha) was 100. The “Post-emerge Herbicidal Activity RICE” value ([10]; 63 g ai/ha) was 40, the “Post-emerge Herbicidal Activity RICE” value ([10]; 250 g ai/ha) was 80 and the “Post-emerge Herbicidal Activity CORN” value ([11]; 63 g ai/ha) was 15. The “Post-emerge Herbicidal Activity CORN” value ([11]; 250 g ai/ha) was 45, the “phytotoxicity rating RICE” value ([12]; 63 g ai/ha) was 90 and the “phytotoxicity rating RICE” value ([12]; 250 g ai/ha) was 100. The “phytotoxicity rating CORN” value ([13]; 63 g ai/ha) was 65, the “phytotoxicity rating CORN” value ([13]; 250 g ai/ha) was 100 and the “Post-emerge Herbicidal Activity DIGSA” value ([14]; 63 g ai/ha) was 20. For the same molecule, the “Post-emerge Herbicidal Activity DIGSA” value ([14]; 250 g ai/ha) was 80, the “Post-emerge Herbicidal Activity AMARE” value [15, 23] was 80 and the “Post-emerge Herbicidal Activity AMARE” value [15, 24] was 100. The “Post-emerge Herbicidal Activity SORHA” value ([16]; 63 g ai/ha) was 10, the “Post-emerge Herbicidal Activity SORHA” value ([16]; 250 g ai/ha) was 70 and the “Post-emerge Herbicidal Activity CHEAL” value ([17]; 63 g ai/ha) was 100. The “Post-emerge Herbicidal Activity CHEAL” value ([17]; 250 g ai/ha) was 100, the “Post-emerge Herbicidal Activity SETVI” value ([18]; 63 g ai/ha) was 30 and the “Post-emerge Herbicidal Activity SETVI” value ([18]; 250 g ai/ha) was 60. The “Post-emerge Herbicidal Activity ECHCG” value ([19]; 63 g ai/ha) was 10, the “Post-emerge Herbicidal Activity ECHCG” value ([19]; 250 g ai/ha) was 90 and the “Post-emerge Herbicidal Activity CASOB” value ([20]; 63 g ai/ha) was 80. The “Post-emerge Herbicidal Activity CASOB” value ([20]; 250 g ai/ha) was 100, the “Post-emerge Herbicidal Activity IPOHE” value ([21]; 63 g ai/ha) was 100 and the “Post-emerge Herbicidal Activity IPOHE” value ([21]; 250 g ai/ha) was 100. For the same molecule, the “Post-emerge Herbicidal Activity ABUTH” value ([22]; 63 g ai/ha) was 100 and the “Post-emerge Herbicidal Activity ABUTH” value ([22]; 250 g ai/ha) was 100.

From patent US6355799B1, “Substituted benzene compounds, process for their preparation, and herbicidal and defoliant compositions containing them” (ISK Americas Incorporated, priority 1997, dated 2002)
